Two compounds from patent US20200239530A1, “COMPOUNDS AND METHODS OF MODULATING PROTEIN DEGRADATION” (Vividion Therapeutics, Inc., priority 2017, published 2020) can be followed below.

What all share (test): Cysteine liganding, probe competition
What all share (format): binding

In one test the target is T1, FDFT1 Squalene synthase (Homo sapiens, UniProt P37268).
T1 construct: 200 μL of lysate containing 5 mg/ml proteome was treated with 2 μL of 100× compound stock; endogenous in cells
T1 sequence (P37268 1-417): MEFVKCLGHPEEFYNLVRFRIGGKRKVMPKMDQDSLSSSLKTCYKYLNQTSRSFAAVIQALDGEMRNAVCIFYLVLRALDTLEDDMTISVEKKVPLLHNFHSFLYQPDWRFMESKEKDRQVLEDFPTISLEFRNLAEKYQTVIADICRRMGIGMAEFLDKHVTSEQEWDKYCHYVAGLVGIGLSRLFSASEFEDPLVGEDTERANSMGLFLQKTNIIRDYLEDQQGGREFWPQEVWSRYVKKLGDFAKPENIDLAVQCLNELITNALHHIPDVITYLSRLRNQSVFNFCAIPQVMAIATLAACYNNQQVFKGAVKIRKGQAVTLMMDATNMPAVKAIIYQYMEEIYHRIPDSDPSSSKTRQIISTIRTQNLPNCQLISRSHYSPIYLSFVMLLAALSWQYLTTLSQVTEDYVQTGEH
The method, boiled down: (§1)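 Steps: sonicate cells in cold PBS; treat 5 mg/ml lysate with compound (25° C, 1 hr); add desthiobiotin iodoacetamide probe from a 10 mM stock (25° C, 1 hr); precipitate, reduce, alkylate, digest with trypsin; capture labelled peptides on streptavidin for analysis.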

Test [1] has as its target T2, SPAG5 Sperm-associated antigen 5 (Homo sapiens, UniProt Q96R06).
T2 construct: Cells were resuspended in cold PBS on ice and sonicated with a probe sonicator to achieve lysis; endogenous in cells
As to conditions: SPAG5 Res# 382, uniprot Q96R06. The method, boiled down:
as §1

For test [2], the target named is T3, KEAP1 Kelch-like ECH-associated protein 1 (Homo sapiens, UniProt Q14145).
T3 construct: Cells were resuspended in cold PBS on ice and sonicated with a probe sonicator to achieve lysis; endogenous in cells
The following applies: KEAP1 Res# 288, uniprot Q14145. The method, boiled down:
as §1

The target in test [3] is T4, ZNF638 Zinc finger protein 638 (Homo sapiens, UniProt Q14966).
T4 construct: Cells were resuspended in cold PBS on ice and sonicated with a probe sonicator to achieve lysis; endogenous in cells
T4 sequence (Q14966 whole entry): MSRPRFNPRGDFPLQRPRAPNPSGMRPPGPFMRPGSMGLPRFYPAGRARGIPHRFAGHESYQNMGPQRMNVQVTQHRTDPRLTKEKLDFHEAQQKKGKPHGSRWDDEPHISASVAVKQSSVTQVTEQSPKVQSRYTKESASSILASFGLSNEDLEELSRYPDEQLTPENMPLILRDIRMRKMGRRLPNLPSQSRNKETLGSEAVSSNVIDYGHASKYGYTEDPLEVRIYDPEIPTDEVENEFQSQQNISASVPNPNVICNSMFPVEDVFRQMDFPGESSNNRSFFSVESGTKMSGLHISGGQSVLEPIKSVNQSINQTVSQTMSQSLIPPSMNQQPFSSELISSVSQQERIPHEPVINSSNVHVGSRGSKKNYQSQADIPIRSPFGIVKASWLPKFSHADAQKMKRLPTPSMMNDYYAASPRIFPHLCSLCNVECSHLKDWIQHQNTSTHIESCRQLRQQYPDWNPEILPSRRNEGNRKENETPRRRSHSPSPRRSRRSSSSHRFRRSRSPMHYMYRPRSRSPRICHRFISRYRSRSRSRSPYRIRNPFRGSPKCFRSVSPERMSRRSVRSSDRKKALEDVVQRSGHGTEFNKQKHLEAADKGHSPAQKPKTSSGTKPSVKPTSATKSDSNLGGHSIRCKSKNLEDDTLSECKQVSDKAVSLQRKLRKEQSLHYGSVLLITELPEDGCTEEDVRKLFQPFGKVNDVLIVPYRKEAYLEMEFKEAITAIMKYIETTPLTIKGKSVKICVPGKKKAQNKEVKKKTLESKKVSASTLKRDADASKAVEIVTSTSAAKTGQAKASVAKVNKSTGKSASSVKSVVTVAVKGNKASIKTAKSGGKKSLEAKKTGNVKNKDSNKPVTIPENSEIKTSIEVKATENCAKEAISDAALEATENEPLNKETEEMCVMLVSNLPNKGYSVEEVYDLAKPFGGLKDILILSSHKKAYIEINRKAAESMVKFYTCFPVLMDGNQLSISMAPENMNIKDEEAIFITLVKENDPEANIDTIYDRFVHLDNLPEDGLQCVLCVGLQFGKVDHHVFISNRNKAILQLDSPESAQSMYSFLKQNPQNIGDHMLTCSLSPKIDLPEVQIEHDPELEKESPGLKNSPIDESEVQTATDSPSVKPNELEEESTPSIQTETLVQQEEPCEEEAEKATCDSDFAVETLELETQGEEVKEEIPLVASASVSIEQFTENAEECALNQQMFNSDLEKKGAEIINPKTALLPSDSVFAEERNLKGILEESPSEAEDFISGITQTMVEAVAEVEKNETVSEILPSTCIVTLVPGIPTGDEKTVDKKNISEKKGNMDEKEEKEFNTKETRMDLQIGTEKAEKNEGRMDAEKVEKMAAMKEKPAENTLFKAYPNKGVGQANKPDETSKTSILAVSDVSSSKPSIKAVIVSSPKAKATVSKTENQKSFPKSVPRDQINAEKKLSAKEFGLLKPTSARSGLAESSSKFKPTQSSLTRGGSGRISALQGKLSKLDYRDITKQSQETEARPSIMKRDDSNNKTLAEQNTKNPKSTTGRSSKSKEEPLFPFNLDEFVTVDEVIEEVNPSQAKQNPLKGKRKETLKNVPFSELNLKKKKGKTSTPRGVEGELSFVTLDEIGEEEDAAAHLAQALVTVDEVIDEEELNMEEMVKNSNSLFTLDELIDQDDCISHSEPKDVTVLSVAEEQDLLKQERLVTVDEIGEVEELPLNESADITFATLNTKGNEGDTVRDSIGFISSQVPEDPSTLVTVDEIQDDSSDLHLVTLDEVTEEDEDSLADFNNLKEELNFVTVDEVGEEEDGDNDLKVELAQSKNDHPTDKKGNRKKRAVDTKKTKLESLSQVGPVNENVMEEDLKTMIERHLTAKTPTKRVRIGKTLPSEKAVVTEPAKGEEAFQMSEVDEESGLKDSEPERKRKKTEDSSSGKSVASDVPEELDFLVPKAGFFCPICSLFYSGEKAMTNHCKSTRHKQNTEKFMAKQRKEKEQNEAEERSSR
The method, boiled down:
as §1

In test [4] the target is T5, DTL Denticleless protein homolog (Homo sapiens, UniProt Q9NZJ0).
T5 construct: Cells were resuspended in cold PBS on ice and sonicated with a probe sonicator to achieve lysis; endogenous in cells
T5 sequence (Q9NZJ0 whole entry): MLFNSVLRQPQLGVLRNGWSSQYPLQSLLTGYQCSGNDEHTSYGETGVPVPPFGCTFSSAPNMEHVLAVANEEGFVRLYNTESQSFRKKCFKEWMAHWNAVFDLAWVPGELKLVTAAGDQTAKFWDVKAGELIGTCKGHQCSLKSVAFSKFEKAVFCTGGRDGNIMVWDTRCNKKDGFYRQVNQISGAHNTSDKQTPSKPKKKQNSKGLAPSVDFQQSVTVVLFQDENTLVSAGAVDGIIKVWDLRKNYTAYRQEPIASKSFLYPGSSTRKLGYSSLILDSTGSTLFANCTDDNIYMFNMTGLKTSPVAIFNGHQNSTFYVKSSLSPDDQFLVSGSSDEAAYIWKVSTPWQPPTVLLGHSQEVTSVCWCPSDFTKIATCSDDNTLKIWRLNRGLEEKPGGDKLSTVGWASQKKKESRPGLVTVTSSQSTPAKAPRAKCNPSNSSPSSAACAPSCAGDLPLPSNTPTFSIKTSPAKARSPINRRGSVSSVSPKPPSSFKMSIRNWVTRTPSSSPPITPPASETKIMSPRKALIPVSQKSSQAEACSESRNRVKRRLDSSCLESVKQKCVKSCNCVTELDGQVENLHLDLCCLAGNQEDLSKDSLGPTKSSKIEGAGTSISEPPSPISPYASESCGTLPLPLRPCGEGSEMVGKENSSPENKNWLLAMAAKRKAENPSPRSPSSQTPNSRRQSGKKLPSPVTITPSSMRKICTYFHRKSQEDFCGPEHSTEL
The method, boiled down: as §1

For test [5], the target named is T6, VDAC3 Voltage-dependent anion-selective channel protein (Homo sapiens, UniProt Q9Y277).
T6 construct: Cells were resuspended in cold PBS on ice and sonicated with a probe sonicator to achieve lysis; endogenous in cells
T6 sequence (Q9Y277 whole entry): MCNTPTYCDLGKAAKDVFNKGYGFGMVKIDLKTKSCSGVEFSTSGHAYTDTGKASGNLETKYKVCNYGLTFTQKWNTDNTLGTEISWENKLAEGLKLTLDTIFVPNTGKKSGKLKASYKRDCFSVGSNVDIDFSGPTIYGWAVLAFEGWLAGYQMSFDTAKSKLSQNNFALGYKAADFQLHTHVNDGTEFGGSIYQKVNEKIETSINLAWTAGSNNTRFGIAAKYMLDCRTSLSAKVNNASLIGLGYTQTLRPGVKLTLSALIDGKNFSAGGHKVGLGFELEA
As to conditions: VDAC3 Res# 229, uniprot Q9Y277. The method, boiled down:
as §1

The target in test [6] is T7, VDAC2 Voltage-dependent anion-selective channel protein (Homo sapiens, UniProt P45880).
T7 construct: Cells were resuspended in cold PBS on ice and sonicated with a probe sonicator to achieve lysis; endogenous in cells
T7 sequence (P45880 whole entry): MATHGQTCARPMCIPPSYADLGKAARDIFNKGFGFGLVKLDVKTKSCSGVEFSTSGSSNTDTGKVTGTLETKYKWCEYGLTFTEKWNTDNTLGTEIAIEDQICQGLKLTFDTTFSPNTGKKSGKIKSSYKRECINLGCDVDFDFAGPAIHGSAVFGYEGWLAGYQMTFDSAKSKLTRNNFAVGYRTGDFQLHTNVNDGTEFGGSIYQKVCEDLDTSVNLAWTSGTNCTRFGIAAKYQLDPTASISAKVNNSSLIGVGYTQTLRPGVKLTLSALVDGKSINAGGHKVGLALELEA
The method, boiled down:
as §1

Test [7] addresses T8, NT5DC2 5-nucleotidase domain-containing protein 2 (Homo sapiens, UniProt Q9H857).
T8 construct: Cells were resuspended in cold PBS on ice and sonicated with a probe sonicator to achieve lysis; endogenous in cells
The method, boiled down: as §1

T8 sequence (Q9H857 whole entry, the tested form may be a part): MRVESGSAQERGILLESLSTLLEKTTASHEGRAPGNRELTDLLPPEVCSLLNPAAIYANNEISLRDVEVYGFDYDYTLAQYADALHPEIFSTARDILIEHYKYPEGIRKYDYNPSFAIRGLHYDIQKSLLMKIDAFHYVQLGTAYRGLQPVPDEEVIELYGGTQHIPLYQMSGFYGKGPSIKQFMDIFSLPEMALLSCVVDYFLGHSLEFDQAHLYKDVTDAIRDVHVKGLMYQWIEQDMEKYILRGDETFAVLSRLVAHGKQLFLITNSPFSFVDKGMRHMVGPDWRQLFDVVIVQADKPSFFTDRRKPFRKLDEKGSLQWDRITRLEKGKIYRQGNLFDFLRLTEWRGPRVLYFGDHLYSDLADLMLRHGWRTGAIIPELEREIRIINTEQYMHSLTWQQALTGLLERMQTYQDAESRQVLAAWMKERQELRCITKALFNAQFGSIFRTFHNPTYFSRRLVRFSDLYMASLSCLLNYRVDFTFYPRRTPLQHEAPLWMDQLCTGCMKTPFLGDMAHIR
T2 sequence (Q96R06 whole entry): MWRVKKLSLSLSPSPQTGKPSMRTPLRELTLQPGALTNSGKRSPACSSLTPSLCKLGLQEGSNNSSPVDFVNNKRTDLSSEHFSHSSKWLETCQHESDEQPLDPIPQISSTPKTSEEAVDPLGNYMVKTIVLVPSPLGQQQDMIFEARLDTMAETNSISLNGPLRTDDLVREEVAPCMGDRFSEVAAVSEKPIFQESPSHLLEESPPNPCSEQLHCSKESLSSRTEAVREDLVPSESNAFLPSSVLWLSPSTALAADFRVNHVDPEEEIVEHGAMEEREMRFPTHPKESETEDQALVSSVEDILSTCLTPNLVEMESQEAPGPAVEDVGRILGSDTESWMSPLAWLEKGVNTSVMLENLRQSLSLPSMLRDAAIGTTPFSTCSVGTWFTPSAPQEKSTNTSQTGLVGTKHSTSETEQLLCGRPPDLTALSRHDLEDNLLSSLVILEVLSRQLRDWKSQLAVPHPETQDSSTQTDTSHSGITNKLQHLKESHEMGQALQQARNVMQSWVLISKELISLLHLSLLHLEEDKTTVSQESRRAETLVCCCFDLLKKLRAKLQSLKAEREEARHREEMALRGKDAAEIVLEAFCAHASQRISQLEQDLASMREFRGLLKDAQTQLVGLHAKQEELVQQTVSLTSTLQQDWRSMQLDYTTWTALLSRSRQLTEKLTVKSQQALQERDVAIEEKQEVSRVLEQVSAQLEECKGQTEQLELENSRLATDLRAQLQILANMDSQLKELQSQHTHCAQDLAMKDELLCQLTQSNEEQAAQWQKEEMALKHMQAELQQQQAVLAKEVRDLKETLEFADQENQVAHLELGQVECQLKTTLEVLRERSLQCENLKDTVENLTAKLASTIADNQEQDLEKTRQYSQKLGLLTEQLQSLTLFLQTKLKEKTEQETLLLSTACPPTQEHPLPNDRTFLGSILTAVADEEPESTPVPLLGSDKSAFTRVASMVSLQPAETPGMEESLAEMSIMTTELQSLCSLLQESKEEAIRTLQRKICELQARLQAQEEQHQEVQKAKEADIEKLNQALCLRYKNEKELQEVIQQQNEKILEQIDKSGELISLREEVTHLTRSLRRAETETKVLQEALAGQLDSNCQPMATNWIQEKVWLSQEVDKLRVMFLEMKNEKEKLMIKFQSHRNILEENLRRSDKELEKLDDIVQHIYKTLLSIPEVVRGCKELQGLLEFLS

As for `O=C(CCl)Nc1cc(C(F)(F)F)cc(C(F)(F)F)c1` [KBO3], at FDFT1 Squalene synthase (FDFT1 Res# 6, uniprot P37268), the Liganded entry is “YES”. In addition, at FDFT1 Squalene synthase (uniprot P37268), the “100 Max” value is given as 59.08, the 100 ave came to 37.7, the “500 Max” value worked out at 82.93 and the 500 ave was found to be 82.93.

In the case of `COc1ccc2c(c1)CCCN2C(=O)CCl` [KB02], the Liganded result in test [1] is on record as “YES”; in test [2], “YES”; in test [3] (ZNF638 Res# 1023, uniprot Q14966) it was “YES”; in test [3] (ZNF638 Res# 1026, uniprot Q14966), “YES”; in test [4] (DTL Res# 136, uniprot Q9NZJ0), “YES”; in test [4] (DTL Res# 141, uniprot Q9NZJ0), “YES”. Also, the Liganded result in test [5] is “YES”; in test [6] (VDAC2 Res# 210, uniprot P45880), “YES”; in test [6] (VDAC2 Res# 227, uniprot P45880), “YES”; in test [7] (NT5DC2 Res# 504, uniprot Q9H857) it was “YES”; in test [7] (NT5DC2 Res# 507, uniprot Q9H857), “YES”.
